Test results from patent publication US11174233B1, “Anti-cancer compounds having oxazolone derivation” (King Abdulaziz University, priority 2019, dated 2021).

Experiments:
[1] = system: MCF-7 (breast) cancer cells; test: SRB cytotoxicity assay against MCF7; format: cell-based, human; conditions: 72 h treatment
Procedure: (§1) MCF-7 (breast) and PC3 (prostate) cancer cells were each grown in RPMI-1640 medium supplemented with 10% heat inactivated FBS, 50 units/mL of penicillin, and […] of streptomycin. The cultures were maintained at 37° C. in a humidified atmosphere containing 5% CO2. The cells were maintained as “monolayer culture” by serial sub-culturing.
(§2) Cytotoxicity was determined using SRB method as previously described by Skehan et al. [Skehan P.; Storeng R.; Scudiero D.; Monks A.; McMahon J.; al., V. D. e., New colorimetric cytotoxicity assay for anticancer drug screening. […] Exponentially growing cells were collected using 0.25% Trypsin-EDTA and seeded in 96-well plates at 1000-2000 cells/well in RPMI-1640 supplemented medium. After 24 h, cells were incubated for 72 h with various concentrations of the tested compounds. Following 72 h treatment, the cells would be fixed with 10% trichloroacetic acid for 1 h at 4° C. Wells were stained for 10 min at room temperature with 0.4% SRB dissolved in 1% acetic acid. The plates were air dried for 24 h and the dye was solubilized with Tris-HCl for 5 min on a shaker at 1600 rpm. The optical density (OD) of each well was measured spectrophotometrically at 564 nm with an ELISA microplate reader (ChroMate-4300, FL, USA). The IC50 values were calculated according to the equation for Boltzman sigmoidal concentration—response curve using the nonlinear regression fitting models (Graph Pad, Prism Version 5).

[2] = system: PC3 (prostate) cancer cells; test: SRB cytotoxicity assay against PC3; format: cell-based, human; conditions: 72 h treatment
Procedure: as §1, §2

Compound	IC50 ([1]; Homo sapiens)	IC50 ([2]; Homo sapiens)	melting point	IC50 [1]	IC50 [2]
O=C(Cc1ccc(NC(=O)/C(=C\c2ccc(Cl)cc2)NC(=O)c2ccccc2)cc1)NCc1cccc(F)c1 [KIM-2250V, (E)-N-(1-(4-chlorophenyl)-3-((4-(2-((3-fluorobenzyl)amino)-2-oxoethyl)phenyl)amino)-3-oxoprop-1-en-2-yl)benzamide]	> 100 µM	> 100 µM			
COc1cc(/C=C2\N=C(c3ccccc3)N(c3ccc(CC(=O)NCc4ccccc4)cc3)C2=O)ccc1O [KIM-231C, (Z)—N-benzyl-2-(4-(4-(4-hydroxy-3-methoxybenzylidene)-5-oxo-2-phenyl-4,5-dihydro-1H-imidazol-1-yl)phenyl)acetamide]			109 to 112 °C		
O=C(Cc1ccc(NC(=O)C(=Cc2ccc(Cl)cc2)NC(=O)c2ccccc2)cc1)NCc1ccccc1 (stereo in doubt) [KIM-221V, (E)-N-(3-((4-(2-(benzylamino)-2-oxoethyl)phenyl)amino)-1-(4-chlorophenyl)-3-oxoprop-1-en-2-yl)benzamide]	3.12 µM	4.08 µM			
O=C(Cc1ccc(NC(=O)/C(=C\c2ccccc2)NC(=O)c2ccccc2)cc1)NCc1ccccc1 [KIM-211V, (E)-N-(3-((4-(2-(benzylamino)-2-oxoethyl)phenyl)amino)-3-oxo-1-phenylprop-1-en-2-yl) benzamide]	> 100 µM	> 100 µM			
Cc1cc(F)ccc1/C=C(/NC(=O)c1ccccc1)C(=O)Nc1ccc(CC(=O)NCc2ccccc2)cc1 [KIM-2101V, (E)-N-(3-((4-(2-(benzylamino)-2-oxoethyl)phenyl)amino)-1-(4-fluoro-2-methylphenyl)-3-oxoprop-1-en-2-yl)benzamide]	> 100 µM	> 100 µM			
CC(=O)N/C(=C/c1ccccc1)C(=O)Nc1ccc(CC(=O)NCc2ccccc2)cc1 [KIM-111V, (E)-2-acetamido-N-(4-(2-(benzylamino)-2-oxoethyl)phenyl)-3-phenylacrylamide]	> 100 µM	> 100 µM	197 °C		
COc1ccc(CNC(=O)Cc2ccc(NC(=O)/C(=C\c3ccc(Cl)cc3)NC(=O)c3ccccc3)cc2)cc1 [KIM-2216V, (E)-N-(1-(4-chlorophenyl)-3-((4-(2-((4-methoxybenzyl)amino)-2-oxoethyl)phenyl)amino)-3-oxoprop-1-en-2-yl)benzamide]	> 100 µM	> 100 µM			
CC(=O)N/C(=C/c1ccc(Cl)cc1)C(=O)Nc1ccc(CC(=O)NCc2ccccc2)cc1 [KIM-121V, (E)-2-acetamido-N-(4-(2-(benzylamino)-2-oxoethyl)phenyl)-3-(4-chlorophenyl)acrylamide]	> 100 µM	57.3 µM			
O=C(Cc1ccc(N2C(=O)/C(=C/c3ccc(Cl)cc3)N=C2c2ccccc2)cc1)NCc1ccccc1 [KIM-221C, (Z)—N-benzyl-2-(4-(4-(4-chlorobenzylidene)-5-oxo-2-phenyl-4,5-dihydro-1H-imidazol-1-yl)phenyl)acetamide]			218 to 220 °C		
O=C(Cc1ccc(NC(=O)/C(=C\c2ccc(Cl)cc2)NC(=O)c2ccccc2)cc1)NCc1ccc(-c2ccccc2)cc1 [KIM-2249V, (E)-N-(3-((4-(2-(([1,1′-biphenyl]-4-ylmethyl)amino)-2-oxoethyl)phenyl)amino)-1-(4-chlorophenyl)-3-oxoprop-1-en-2-yl)benzamide]	87.5 µM	92.2 µM			
COc1cc(/C=C(/NC(=O)c2ccccc2)C(=O)Nc2ccc(CC(=O)NCc3ccccc3)cc2)ccc1O [KIM-231V, (E)-N-(3-((4-(2-(benzylamino)-2-oxoethyl)phenyl)amino)-1-(4-hydroxy-3-methoxyphenyl)-3-oxoprop-1-en-2-yl)benzamide]	> 100 µM	> 100 µM			
COc1cc(/C=C(/NC(C)=O)C(=O)Nc2ccc(CC(=O)NCc3ccccc3)cc2)ccc1O [KIM-131V, (E)-2-acetamido-N-(4-(2-(benzylamino)-2-oxoethyl)phenyl)-3-(4-hydroxy-3-methoxyphenyl) acrylamide]				53.5 µM	61.3 µM
CC(NC(=O)Cc1ccc(NC(=O)/C(=C\c2ccc(Cl)cc2)NC(=O)c2ccccc2)cc1)c1ccccc1 (stereo not shown) [KIM-2247V, (E)-N-(1-(4-chlorophenyl)-3-oxo-3-((4-(2-oxo-2-((1-phenylethyl)amino)ethyl)phenyl)amino)prop-1-en-2-yl)benzamide]	> 100 µM	> 100 µM			
CN(Cc1ccccc1)C(=O)Cc1ccc(NC(=O)/C(=C\c2ccc(Cl)cc2)NC(=O)c2ccccc2)cc1 [KIM-2245V, (E)-N-(3-((4-(2-(benzyl(methyl)amino)-2-oxoethyl)phenyl)amino)-1-(4-chlorophenyl)-3-oxoprop-1-en-2-yl)benzamide]	> 100 µM	> 100 µM			
COc1ccc(/C=C2\N=C(c3ccccc3)N(c3ccc(CC(=O)NCc4ccccc4)cc3)C2=O)cc1 [KIM-261C, (Z)—N-benzyl-2-(4-(4-(4-methoxybenzylidene)-5-oxo-2-phenyl-4,5-dihydro-1H-imidazol-1-yl)phenyl)acetamide]			193 °C		
CC1=N/C(=C\c2ccccc2)C(=O)N1c1ccc(CC(=O)NCc2ccccc2)cc1 [KIM-111C, (Z)—N-benzyl-2-(4-(4-benzylidene-2-methyl-5-oxo-4,5-dihydro-1H-imidazol-1-yl)phenyl)acetamide]			164 to 165 °C		
COc1ccc(/C=C(/NC(=O)c2ccccc2)C(=O)Nc2ccc(CC(=O)NCc3ccccc3)cc2)cc1 [KIM-261V, (E)-N-(3-((4-(2-(benzylamino)-2-oxoethyl)phenyl)amino)-1-(4-methoxyphenyl)-3-oxoprop-1-en-2-yl)benzamide]	> 100 µM	> 100 µM			
COc1cc(/C=C2\N=C(C)N(c3ccc(CC(=O)NCc4ccccc4)cc3)C2=O)ccc1O [KIM-131C, (Z)—N-benzyl-2-(4-(4-(4-hydroxy-3-methoxybenzylidene)-2-methyl-5-oxo-4,5-dihydro-1H-imidazol-1-yl)phenyl)acetamide]	9.48 µM	5.83 µM			
CC1=N/C(=C\c2ccc(Cl)cc2)C(=O)N1c1ccc(CC(=O)NCc2ccccc2)cc1 [KIM-121C, (Z)—N-benzyl-2-(4-(4-(4-chlorobenzylidene)-2-methyl-5-oxo-4,5-dihydro-1H-imidazol-1-yl)phenyl)acetamide]		6.86 µM	209 to 211 °C		
O=C(Cc1ccc(NC(=O)/C(=C\c2ccc(Cl)cc2)NC(=O)c2ccccc2)cc1)Nc1ccccc1 [KIM-22101V, (E)-N-(1-(4-chlorophenyl)-3-oxo-3-((4-(2-oxo-2-(phenylamino)ethyl)phenyl)amino)prop-1-en-2-yl)benzamide]	> 100 µM	> 100 µM			
COc1ccc(/C=C(/NC(C)=O)C(=O)Nc2ccc(CC(=O)NCc3ccccc3)cc2)cc1 [KIM-161V, (E)-2-acetamido-N-(4-(2-(benzylamino)-2-oxoethyl)phenyl)-3-(4-methoxyphenyl) acrylamide]				44.3 µM	41.1 µM
O=C(Cc1ccc(NC(=O)/C(=C\c2ccc(Cl)cc2)NC(=O)c2ccccc2)cc1)NCc1ccco1 [KIM-2230V, (E)-N-(1-(4-chlorophenyl)-3-((4-(2-((furan-2-ylmethyl)amino)-2-oxoethyl)phenyl)amino)-3-oxoprop-1-en-2-yl)benzamide]	> 100 µM	97.8 µM			
O=C(Cc1ccc(N2C(=O)/C(=C/c3ccccc3)N=C2c2ccccc2)cc1)NCc1ccccc1 [KIM-211C, (Z)—N-benzyl-2-(4-(4-benzylidene-5-oxo-2-phenyl-4,5-dihydro-1H-imidazol-1-yl)phenyl)acetamide]			218 to 219 °C		
O=C(Cc1ccc(NC(=O)/C(=C\c2ccc(Cl)cc2)NC(=O)c2ccccc2)cc1)NCCc1ccccc1 [KIM-2246V, (E)-N-(1-(4-chlorophenyl)-3-oxo-3-((4-(2-oxo-2-(phenethylamino)ethyl)phenyl)amino)prop-1-en-2-yl)benzamide]	> 100 µM	> 100 µM			
O=C(Cc1ccc(NC(=O)/C(=C\c2ccc(Cl)cc2)NC(=O)c2ccccc2)cc1)NCc1ccc(F)cc1 [KIM-2248V, (E)-N-(1-(4-chlorophenyl)-3-((4-(2-((4-fluorobenzyl)amino)-2-oxoethyl)phenyl)amino)-3-oxoprop-1-en-2-yl)benzamide]	89.6 µM	85.1 µM			
